Assay results published in US12172983B2, “EGFR inhibitors” (Blueprint Medicines Corporation, priority 2019, dated 2024).
Read-outs that look alike come from different tables or passages of the source.

Columns and labels:
[1] = test system: phosphorylation of EGFR (Tyr1068) in NCI-H1975 cell line that harbors the EGFR L858R T790M mutations; assay: NCI-H1975 pEGFR AlphaLISA assay; type: cell-based; conditions: 4-5 hours incubation, read-out: Ext pEGFR H1975
Procedure, shortened: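 Phospho-EGFR Tyr1068 AlphaLISA readout: lysates taken from compound-treated H1975 cells (L858R T790M EGFR) after a 4-5 h exposure at 37 °C. Cells had adhered overnight beforehand. IC50 derived by plotting % pEGFR inhibition against log compound concentration.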

EGFR (L858R T790M C797S) = biological target: T1, EGFR (L858R T790M C797S) (Homo sapiens, UniProt P00533, C797S/L858R/T790M); assay: Biochemical EGFR inhibition assay (Caliper mobility shift), EGFR LRTMCS mutant; conditions: inhibitory activity against EGFR LRTMCS mutant; apparent IC50; read-out: Ext Enz LRTMCS
T1 construct: purchased SignalChem E10-122VG
T1 sequence (P00533 25-1210 T790M/C797S/L858R): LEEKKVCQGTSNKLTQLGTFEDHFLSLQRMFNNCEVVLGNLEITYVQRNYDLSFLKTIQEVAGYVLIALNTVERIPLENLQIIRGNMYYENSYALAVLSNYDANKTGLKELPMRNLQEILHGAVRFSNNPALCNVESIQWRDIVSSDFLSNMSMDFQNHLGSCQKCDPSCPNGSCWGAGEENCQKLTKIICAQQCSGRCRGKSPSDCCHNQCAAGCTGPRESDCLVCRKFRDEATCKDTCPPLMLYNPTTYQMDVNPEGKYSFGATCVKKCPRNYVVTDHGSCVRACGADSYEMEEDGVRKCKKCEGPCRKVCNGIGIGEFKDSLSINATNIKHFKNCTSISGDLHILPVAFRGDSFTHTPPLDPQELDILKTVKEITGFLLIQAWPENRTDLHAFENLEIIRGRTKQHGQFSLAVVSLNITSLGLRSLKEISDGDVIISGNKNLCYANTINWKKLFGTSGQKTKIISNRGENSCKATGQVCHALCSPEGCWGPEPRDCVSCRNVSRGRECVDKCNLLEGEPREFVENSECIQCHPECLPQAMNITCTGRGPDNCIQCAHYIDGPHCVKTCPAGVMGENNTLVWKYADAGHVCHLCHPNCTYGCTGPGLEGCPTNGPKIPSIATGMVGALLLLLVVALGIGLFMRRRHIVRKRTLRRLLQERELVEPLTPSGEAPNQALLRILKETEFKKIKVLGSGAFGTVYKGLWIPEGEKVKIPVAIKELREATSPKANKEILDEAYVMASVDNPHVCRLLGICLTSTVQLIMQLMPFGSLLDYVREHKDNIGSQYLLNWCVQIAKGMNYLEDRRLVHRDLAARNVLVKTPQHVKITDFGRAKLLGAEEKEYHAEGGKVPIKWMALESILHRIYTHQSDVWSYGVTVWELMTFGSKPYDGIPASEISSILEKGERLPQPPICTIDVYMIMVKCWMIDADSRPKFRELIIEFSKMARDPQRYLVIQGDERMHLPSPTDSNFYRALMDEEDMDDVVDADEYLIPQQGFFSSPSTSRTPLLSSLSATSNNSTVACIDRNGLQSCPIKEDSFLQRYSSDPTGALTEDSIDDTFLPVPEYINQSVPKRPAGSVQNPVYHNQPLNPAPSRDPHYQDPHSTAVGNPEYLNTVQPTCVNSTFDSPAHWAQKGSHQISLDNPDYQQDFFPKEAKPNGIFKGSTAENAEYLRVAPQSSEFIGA
Procedure, shortened: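 Each enzyme was allowed to phosphorylate 10–20% of its peptide at 25° C. before EDTA (35 mM) quench. Separated substrate and product peaks were measured by mobility shift, giving apparent IC50 values.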

[2] = Homo sapiens, NCI-H1975, inhibition of phosphorylation of mutant EGFR in NCI-H1975 cells

SMILES	IC50 [1, 2]	IC50 (EGFR (L858R T790M C797S))	IC50 ([1]; inhibition of phosphorylation of mutant EGFR in NCI-H1975 cells)
CC(C)c1ccc(N2CC(CS(C)(=O)=O)C2)c2cnc(Nc3ccnc(N4CC[C@H](OCCO)[C@H](F)C4)n3)cc12 [Compound 290, 2-{[(3R,4S)-3-fluoro-1-[4-({8-[3-(methanesulfonylmethyl)azetidin-1-yl]-5-(propan-2-yl)isoquinolin-3-yl}amino)pyrimidin-2-yl]piperidin-4-yl]oxy}ethan-1-ol]	≤ 10 nM	≤ 15 nM	
CC(C)c1ccc(N2C[C@H](CS(C)(=O)=O)[C@H]2C)c2cnc(Nc3cnnc(N4CC[C@@](C)(O)[C@@H](F)C4)n3)cc12 (single isomer, unassigned) [Compound 142]	20.1 to 30 nM	≤ 15 nM	
CC1(C)CN(c2nccc(Nc3cc4cccc(N5CC(CS(C)(=O)=O)C5)c4cn3)n2)CC(F)(F)[C@@H]1O (single isomer, unassigned) [Compound 34, (4R)-3,3-difluoro-1-[4-({8-[3-(methanesulfonylmethyl)azetidin-1-yl]isoquinolin-3-yl}amino)pyrimidin-2-yl]-5,5-dimethylpiperidin-4-ol or (4S)-3,3-difluoro-1-[4-({8-[3-(methanesulfonylmethyl)azetidin-1-yl]isoquinolin-3-yl}amino)pyrimidin-2-yl]-5,5-dimethylpiperidin-4-ol]	10.1 to 20 nM	≤ 15 nM	
CC(C)c1cnc(N2C[C@H](CS(C)(=O)=O)[C@H]2C)c2cnc(Nc3ccnc(N4CC[C@@](C)(O)[C@@H](F)C4)n3)cc12 (single isomer, unassigned) [Compound 137]	≤ 10 nM	≤ 15 nM	
CN[C@H]1CCN(c2nccc(Nc3cc4c(C(C)C)ccc(N5C[C@H](CS(C)(=O)=O)[C@H]5C)c4cn3)n2)C[C@H]1F (single isomer, unassigned) [Compound 307, N-{2-[(3S,4R)-3-fluoro-4-(methylamino)piperidin-1-yl]pyrimidin-4-yl}-8-[(2R,3S)-3-(methanesulfonylmethyl)-2-methylazetidin-1-yl]-5-(propan-2-yl)isoquinolin-3-amine or N-{2-[(3R,4S)-3-fluoro-4-(methylamino)piperidin-1-yl]pyrimidin-4-yl}-8-[(2R,3S)-3-(methanesulfonylmethyl)-2-methylazetidin-1-yl]-5-(propan-2-yl)isoquinolin-3-amine]		20.1 to 30 nM	10.1 to 20 nM
CC(C)c1cc(F)c(N2CC(CS(C)(=O)=O)C2)c2cnc(Nc3ccnc(N4CC[C@@H](O)[C@@](C)(F)C4)n3)cc12 (single isomer, unassigned) [Compound 157]	≤ 10 nM	≤ 15 nM	
CC(C)c1ccc(N2C[C@H](CS(C)(=O)=O)[C@H]2C)c2cnc(Nc3ccnc(N4CC[C@@](C)(O)[C@H](O)C4)n3)cc12 (single isomer, unassigned) [Compound 102, (3R,4R)-1-[4-({8-[(2R,3S)-3-(methanesulfonylmethyl)-2-methylazetidin-1-yl]-5-(propan-2-yl)isoquinolin-3-yl}amino)pyrimidin-2-yl]-4-methylpiperidine-3,4-diol or (3S,4S)-1-[4-({8-[(2R,3S)-3-(methanesulfonylmethyl)-2-methylazetidin-1-yl]-5-(propan-2-yl)isoquinolin-3-yl}amino)pyrimidin-2-yl]-4-methylpiperidine-3,4-diol]	20.1 to 30 nM	≤ 15 nM	
CC(C)c1ccc(N2CC(CS(C)(=O)=O)C2)c2cnc(Nc3ccnc(N4C[C@@H](F)[C@@H](O)[C@@](C)(F)C4)n3)cc12 (single isomer, unassigned) [Compound 155, (3S,4R,5R)-3,5-difluoro-1-[4-({8-[3-(methanesulfonylmethyl)azetidin-1-yl]-5-(propan-2-yl)isoquinolin-3-yl}amino)pyrimidin-2-yl]-3-methylpiperidin-4-ol or (3R,4S,5S)-3,5-difluoro-1-[4-({8-[3-(methanesulfonylmethyl)azetidin-1-yl]-5-(propan-2-yl)isoquinolin-3-yl}amino)pyrimidin-2-yl]-3-methylpiperidin-4-ol]	≤ 10 nM	≤ 15 nM	
CC(C)c1ccc(N2C[C@@H](CS(C)(=O)=O)[C@H]2C)c2cnc(Nc3ccnc(N4CC[C@](C)(O)[C@H](F)C4)n3)cc12 (single isomer, unassigned) [Compound 121]	≤ 10 nM	15.1 to 20 nM	
CO[C@H]1CN(c2nccc(Nc3cc4c(C(C)C)ccc(N5CC(CS(C)(=O)=O)C5)c4cn3)n2)C[C@@H](F)[C@H]1O (racemic) [Compound 147, (3S,4R,5R)-3-fluoro-1-(4-((5-isopropyl-8-(3-((methylsulfonyl)methyl)azetidin-1-yl)isoquinolin-3-yl)amino)pyrimidin-2-yl)-5-methoxypiperidin-4-ol and (3R,4S,5S)-3-fluoro-1-(4-((5-isopropyl-8-(3-((methylsulfonyl)methyl)azetidin-1-yl)isoquinolin-3-yl)amino)pyrimidin-2-yl)-5-methoxypiperidin-4-ol]	10.1 to 20 nM	≤ 15 nM	
CO[C@H]1[C@@H](O)CN(c2nccc(Nc3cc4c(C(C)C)ncc(N5C[C@H](CS(C)(=O)=O)[C@H]5C)c4cn3)n2)CC1(F)F (single isomer, unassigned) [Compound 234, (3S,4S)-5,5-difluoro-1-[4-({8-[(2R,3S)-3-(methanesulfonylmethyl)-2-methylazetidin-1-yl]-5-(propan-2-yl)-2,6-naphthyridin-3-yl}amino)pyrimidin-2-yl]-4-methoxypiperidin-3-ol or (3R,4R)-5,5-difluoro-1-[4-({8-[(2R,3S)-3-(methanesulfonylmethyl)-2-methylazetidin-1-yl]-5-(propan-2-yl)-2,6-naphthyridin-3-yl}amino)pyrimidin-2-yl]-4-methoxypiperidin-3-ol]	20.1 to 30 nM	20.1 to 30 nM	
CO[C@@H]1CCN(c2nccc(Nc3cc4c(C(C)C)ccc(N5C[C@H](CS(C)(=O)=O)[C@H]5C)c4cn3)n2)C[C@H]1CO (single isomer, unassigned) [Compound 174, [(3S,4R)-1-[4-({8-[(2R,3S)-3-(methanesulfonylmethyl)-2-methylazetidin-1-yl]-5-(propan-2-yl)isoquinolin-3-yl}amino)pyrimidin-2-yl]-4-methoxypiperidin-3-yl]methanol or [(3R,4S)-1-[4-({8-[(2R,3S)-3-(methanesulfonylmethyl)-2-methylazetidin-1-yl]-5-(propan-2-yl)isoquinolin-3-yl}amino)pyrimidin-2-yl]-4-methoxypiperidin-3-yl]methanol]	10.1 to 20 nM	≤ 15 nM	
CC(C)c1ccc(N2C[C@H](CS(C)(=O)=O)[C@H]2C)c2cnc(Nc3ccnc(N4CC[C@H](F)[C@H](O)C4)n3)cc12 (single isomer, unassigned) [Compound 268, (3R,4S)-4-fluoro-1-[4-({8-[(2R,3S)-3-(methanesulfonylmethyl)-2-methylazetidin-1-yl]-5-(propan-2-yl)isoquinolin-3-yl}amino)pyrimidin-2-yl]piperidin-3-ol or (3S,4R)-4-fluoro-1-[4-({8-[(2R,3S)-3-(methanesulfonylmethyl)-2-methylazetidin-1-yl]-5-(propan-2-yl)isoquinolin-3-yl}amino)pyrimidin-2-yl]piperidin-3-ol]	20.1 to 30 nM	30.1 to 100 nM	
